According to US20140155361A1, “METHOD FOR TREATING LUNG DISEASE” (Duke University, priority 2010, published 2014):

Legend:
[1] = tested on: NQO1 deficient and C57BL/6 mice; assay: LPS-induced murine emphysema with oral NAC; format: in vivo, mouse
Text: (§1) C57BL/6J mice were purchased from Jackson Laboratories (Bar Harbor, Me.) to be used as controls. A breeding colony was established at Duke University from breeding pairs of NQO1 deficient mice (backcrossed 16 generations on a C57BL/6 background) that were generously provided by Dr. Frank Gonzalez at the National Cancer Institute (Bethesda, Md.) (Radjendirane et al. J. Biol. Chem. 1998; 273:7382-7389). Male C57BL/6 or NQO1 deficient mice were used at one, two, four and six months of age. Experimental protocols were approved by the Institutional Animal Care and Use Committee at Duke University Medical Center and were performed in accordance with the standards established by the U.S. Animal Welfare Act.
LPS (Sigma Aldrich, St Louis Mo.) was reconstituted with sterile saline and added for a dose of 5 μg/m^3. At one month of age, mice were placed in stainless steel wire cage exposure racks in a 20-L plexiglass chamber and exposed to aerosolized LPS for 2.5 hours. LPS solution was aerosolized with a 6-jet atomizer (TSI) with all output directed to the exposure chamber. Filtered air was supplied to the atomizer at 30-psi gauge pressure (Brass et al. Am. J. Resp. Cell. Mol. 2008; 39:584-590). Mice were then returned to their cages. The mice were exposed every other day for a total of three exposures and then given four weeks to recover.
(§2) N-acetyl cysteine (Sigma Aldrich, St. Louis Mo.) was dissolved in the mouse water at a concentration of 2 mg/mL (March et al. Toxicol. Sci. 2006; 92:545-559). The water was changed every two days to prevent oxidation of the NAC. Mice were given NAC in their water for one week before LPS/Saline or PPE/Saline treatment and remained on the NAC water until phenotyping.
(§3) For the mice that underwent pulmonary function tests, the procedure required approximately five minutes per mouse from the point at which the mouse was administered anesthetic and prepared for surgery until the conclusion of pulmonary function measurements and euthanasia. Mice were anesthetized (60 mg/kg Nembutal) and surgically prepared with a tracheal cannula and then placed on a computer-controlled ventilator (flexiVent, SCIREQ, Montreal, Canada) at a constant tidal volume of 7.5 mL/kg and a […] of 3 cm H2O. The animals were then given a neuromuscular blockade (0.8 mg/kg Pancuronium Bromide, Sigma-Aldrich) and given three minutes to adjust to the ventilator. Pressure-volume curves were generated by slow stepwise (ramp) inflation to total lung capacity and deflation back to […] residual capacity (Lovgren et al. Am. J. Physiol. 2006; 291:L144-156). The static compliance measurements were calculated from the pressure volume curves ([…]).
Alveolar surface density (ASD) was calculated as previously described (Auten et al. Am. J. Physiol. 2001; 281:L336-344). Briefly, ten digital images of parenchymal architecture from each mouse were captured at 40× magnification were chosen (omitting large vascular and bronchiolar structures) from 5 μm thick sections of paraffin embedded, formalin-fixed mouse lung that were stained with hematoxylin and eosin (H&E stain, AML Laboratories, Rosedale, Md.). […] Alveolar volume density was calculated from Palveoli/Pparenchyma and alveolar surface density from 2Ialveoli/LT, where LT was the test line length within the lung parenchyma. […]

[2] = tested on: NQO1 deficient and C57BL/6 mice; assay: elastase (PPE) model of emphysema with oral NAC; format: in vivo, mouse
Text: as §1
At two months of age, WT and NQO1 deficient mice were treated with porcine pancreatic elastase (PPE, Sigma Aldrich, St. Louis Mo.) or saline by oropharyngeal aspiration. Briefly, immediately after inhalational anesthesia with 3% isoflurane (IsoFlo from Abbott Laboratories and Open-Circuit Gas Anesthesia System from Stoelting), animals were suspended by their upper incisors on a 60° incline board, and a liquid volume of PPE [25 μg/50 μL saline] or saline alone was delivered by oropharyngeal aspiration. Thirteen days post, the mice were phenotyped by flexiVent for pulmonary mechanics and lavage to collect bronchoalveolar lavage fluid (Foster et al. J Appl Physiol 2001; 90:1111-1117).
as §2, §3
Alveolar surface density (ASD) was calculated as previously described (Auten et al. Am. J. Physiol. 2001; 281:L336-344). Briefly, ten digital images of parenchymal architecture from each mouse were captured at 40× magnification were chosen (omitting large vascular and bronchiolar structures) from 5 μm thick sections of paraffin embedded, formalin-fixed mouse lung that were stained with hematoxylin and eosin (H&E stain, AML Laboratories, Rosedale, Md.). Five random fields were chosen (omitting large vascular and bronchiolar structures) and images were overlaid with an 11°-11 point grid (Metamorph; Universal Imaging, West Chester, Pa.) for point (P) and intercept (I) counting of the alveolar septa. Alveolar volume density was calculated from Palveoli/Pparenchyma and alveolar surface density from 2Ialveoli/LT, where LT was the test line length within the lung parenchyma.

[3] = target: T1, human DNA Topoisomerase I (Homo sapiens, UniProt P11387); conditions: cited from earlier work
T1 sequence (P11387 1-765): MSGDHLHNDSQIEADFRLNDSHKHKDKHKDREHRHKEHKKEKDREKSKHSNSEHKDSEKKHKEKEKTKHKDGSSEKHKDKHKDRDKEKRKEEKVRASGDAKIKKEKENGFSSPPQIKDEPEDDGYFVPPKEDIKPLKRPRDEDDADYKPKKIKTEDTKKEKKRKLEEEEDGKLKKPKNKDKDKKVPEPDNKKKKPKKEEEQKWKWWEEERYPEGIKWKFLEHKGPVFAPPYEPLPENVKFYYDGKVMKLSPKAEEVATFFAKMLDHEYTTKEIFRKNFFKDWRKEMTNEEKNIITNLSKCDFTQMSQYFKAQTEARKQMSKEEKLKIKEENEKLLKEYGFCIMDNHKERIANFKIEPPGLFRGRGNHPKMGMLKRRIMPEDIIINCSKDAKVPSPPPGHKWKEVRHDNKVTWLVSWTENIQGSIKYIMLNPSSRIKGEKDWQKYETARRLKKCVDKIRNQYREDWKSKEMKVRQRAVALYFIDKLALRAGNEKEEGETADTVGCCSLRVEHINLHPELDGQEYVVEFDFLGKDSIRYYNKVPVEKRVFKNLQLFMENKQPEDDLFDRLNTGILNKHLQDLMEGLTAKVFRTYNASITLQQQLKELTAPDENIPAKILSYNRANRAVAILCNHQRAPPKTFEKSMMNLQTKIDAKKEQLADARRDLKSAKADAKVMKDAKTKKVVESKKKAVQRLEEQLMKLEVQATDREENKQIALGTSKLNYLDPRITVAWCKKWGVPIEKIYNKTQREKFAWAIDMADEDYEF

human cancer cell lines = conditions: single agent, read-out: antineoplastic activity (IC50); cited from earlier work
[4] = tested on: human DNA Topoisomerase II; conditions: cited from earlier work
[5] = tested on: mouse alveolar macrophage cell line (MHS cells); assay: oxidative stress in macrophage cell line after NQO1 inhibitor or inducer pretreatment and LPS or PMA challenge; format: cell-based; conditions: pretreated 4 hours (100 nM MAC220 or 5-10 μM β-lapachone), then PMA or LPS 2 hours, supernatant
Procedure: Murine alveolar macrophage cell line (MH-S cell) purchased from ATCC (Manassas, Va.) was used for in vitro NQO1 blocking and inducing assays. Cells were cultured in RPMI1640 medium supplemented with 10% heat-inactivated fetal bovine serum, 2 mM L-glutamine, penicillin (100 U/ml), streptomycin (100 μg/ml), and 10 mM HEPES. To determine the role of NQO1 in macrophage response to LPS or PMA, cells at 80-90% confluence were pretreated with 10 μM of dicumerol for 1 hour, 100 nM of MAC220 or 5-10 μM of β-lapachone for 4 hours, and then were challenged by 20 ng/ml of LPS or 1 μM of PMA. Cell culture supernatants were collected after 2 hour incubation. Same volume of DMSO and PBS were used as vehicle control.

[6] = LPS treated NQO1 deficient mice compared to LPS+NAC NQO1 deficient mice
[7] = BALF, NQO1 and WT mice given NAC prior to elastase challenge
[8] = NQO1 deficient mice, oral NAC in water + elastase vs elastase only

| SMILES | 8-isoprostane concentrations in the BALF [1, 6] | protein carbonyls in the BALF [1, 6] | polymorphonuclear leukocytes, share of BALF cells ([1]; LPS+NAC treated NQO1 deficient mice (LPS only: 5-9%)) | Glutathione measurements in the BAL ([1]; NQO1 deficient mice treated with NAC, LPS model) | static compliance ([1]; NQO1 deficient mice, LPS + NAC vs LPS) | 8-isoprostane levels [2, 7] | protein carbonyls [2, 7] | Glutathione measurements in the BAL ([2]; NQO1 deficient mice treated with NAC, elastase model) | lung compliance [2, 8] | pressure-volume measurements [2, 8] | neutrophils in BALF ([2]; PPE only group compared to the PPE+NAC group, NQO1 deficient and C57BL/6 mice) | mean line intercepts ([2]; PPE+NAC vs PPE groups) | surface alveolar density ([2]; PPE+NAC vs PPE groups) | in vitro inhibition of human DNA Topoisomerase I [3] | IC50 (human cancer cell lines) | in vitro inhibition of human DNA Topoisomerase II [4] | oxidative stress level [5] |
| --- | --- | --- | --- | --- | --- | --- | --- | --- | --- | --- | --- | --- | --- | --- | --- | --- | --- |
| CC(=O)N[C@@H](CS)C(=O)O [NAC, N-acetyl cysteine] | significant increase | significant increase | 1-4% | increased concentrations | attenuated | reduction | reduction | increased concentrations | partially attenuated | partially attenuated | significant increase | complete abrogation of the elastase effect | complete abrogation of the elastase effect |  |  |  |  |
| CC1(C)CCC2=C(O1)c1ccccc1C(=O)C2=O [β-lapachone, 3,4-dihydro-2,2-dimethyl-2H-naphtho[1,2-b]pyran-5,6-dione] |  |  |  |  |  |  |  |  |  |  |  |  |  | potent in vitro inhibition | 1 to 10 µM | potent in vitro inhibition | dose response decrease |
